Laboratory results reported in patent US8987449B2, “Medicine for treating ischemic brain injury and its sequelae, and preparation method thereof” (Haimin Lei, priority 2011, dated 2015).

What was measured:
Type in all cases: in vivo, rat
MCAO rats = assay: Neurological symptoms of MCAO rats (Zea Longa 5 grades); conditions: 0-4 points; for neurological symptoms evaluation (3 d): model group 1.74 ± 0.73; for neurological symptoms evaluation (7 d): model group 1.61 ± 0.96
Procedure: 140 healthy SD male rats, weighing 280-300 g, provided by Beijing Vital River Laboratories, certificate No.: SCXK (Jing) 2002-2003.
Tetramethylpyrazine (TMP), vanillic acid, LQC-T4 (self made), the purity ≧98%, determined using high performance liquid chromatography (HPLC), which met the requirement of experiment, the powder being carefully sealed and preserved at 4° C., and imodipine (ShanDong XinHua Pharmaceutical CO., Ltd, batch No.: 0908164).
The method of [Koizumi J, Yoshida Y, Nakazawa T, Ooneda G. Experimental studies of ischemia brain edema, I: A new experimental model of cerebral embolism in rats in which recirculation can be introduced in the ischemic area[J]. Jpn J Stroke, 1986, 8:1-8] was referred to in order to establish the MCAO model. After the rats were anesthetized and the skin thereof was disinfected by ethanol. By cutting right in the middle of the neck, the right common carotid artery, internal carotid artery and external carotid artery were separated and the common carotid artery and external carotid artery were ligated. The internal carotid artery was clamped with a bulldog clamp. A cut was made at the crotch of the external carotid artery and the internal carotid artery followed by releasing the bulldog clamp. The nylon wire was inserted into the cut with the deep of about a little longer than 18 mm to achieve the cerebral ischemia caused by cerebral artery occlusion. Next, the external carotid artery was ligated and the nylon wire was fixed. In sham operation group, the right common carotid artery, the external carotid artery and the internal carotid artery were only exposed and separated. The rats were routinely raised in different cages. 0.5 ml penicillin was continuously injected into every mouse for three days after the surgery.
The evaluating standard of the neurological symptoms of MCAO rats were carried out according to the Zea Longa 5 grades evaluating method, that is, the rats were evaluated when they were conscious after 6 h after the surgery: no apparent neurological symptom, 0 point; not being able to completely stretch the left front claw, 1 point; whirling leftward, 2 point; leaning leftward when walking, 3 point; having an epileptic seizure, losing consciousness and not being able to walk independently, as 4 point. The rats getting 1-3 point were selected for the subsequent experiment. The MCAO rats having the same point were distributed randomly and averagely to each experimental group.
There were sham operation group, model group, Nimodipine group, LQC-T 4 large dosage group, LQC-T4 small dosage group, TMP group and TMP+Vanillic acid group. 0.5% CMC-Na (1 ml·100 g^−1) was administrated intragastrically to the blank group and model group, two dosage groups of 120 mg·kg^−1 and 60 mg·kg^−1 were intragastrically administrated to the LQC-T4(1 ml·100 g^−1) group, and 74 mg·kg^−1 TMP+46 mg·kg^−1 vanillitc acid (1 ml·100 g^−1) were intragastrically administrated, once a day continuously for 10 days.
The SPSS 11.0 software pack was used to carry out the statistical analysis of all the data. The comparison of the enumeration data was carried out with X^2 test P<0.05 had statistical meaning.

VEGF = VEGF content of MCAO rats (kit, 450 nm); conditions: brain homogenate, model group 18.28 ± 1.62
Source text: 1.1 Experimental animal and 1.2 Medicine to be tested: the same as effect example 6
1.3 Experimental reagents: PBS, VEGF kit
1.4 Experimental instruments: nylon fishing wire having a diameter of 0.25 mm, German; enzyme-labeling instrument (Finland, Thermo BioAnalysis Company's product, Multiskan MK3 model); surgical instruments, Surgical Instrument Factory of Shanghai Medical Apparatus And Instruments CO, LTD.
2.1 The preparation of re-perfusion model of middle cerebral artery occlusion of a rat: the same as effect example 6
2.2 The judgment on whether the model was successful and 2.3 Grouping and administration: the same as effect example 6
2.4 Taking Material and treatment: the same as effect example 6
As to VEGF, it is detected using enzyme-labeling instrument at 450 nm according to the kit.
The SAS 8.2 statistical software was used to carry out the one-way ANOVA variance analysis and the differences among the groups were compared by t-test.

SOD = SOD of MCAO rats (brain homogenate, kit); conditions: model group 40.28 ± 7.51
Procedure: 10% chloral hydrate 0.35 g/kg was injected into the abdominal cavity of a rat to anesthetize thereof. The rat was fixed as supine position. The skin was disinfected thereof by 75% medical alcohol. It was cut right in the middle of the neck. The right common carotid artery, internal carotid artery and external carotid artery were separated and the common carotid artery and external carotid artery were ligated. The internal carotid artery was clamped with a bulldog clamp. A cut was made at the crotch of the external carotid artery and the internal carotid artery followed by releasing the bulldog clamp. The nylon wire (diameter 0.25 mm, marked at a distance of 18 mm from the head end) was inserted into the cut and the insertion was stopped when some resistance was felt. The insert depth was a little longer than 18 mm to achieve the cerebral ischemia caused by middle cerebral artery occlusion. The internal carotid artery was ligated and the nylon wire was fixed. The muscle and skin were sutured layer by layer. In sham operation group, the right common carotid artery, the external carotid artery and the internal carotid artery were only exposed and separated. The rats were conventionally raised in different cages regularly. 0.5 ml penicillin was continuously injected into every rat for three days after the surgery.
The rats were divided into 7 groups in the experiment, that is, sham operation group, model group, Nimodipine group, LQC-T4 large dosage group, LQC-T4 small dosage group, TMP group, and TMP+Vanillic acid group. The model rats getting 1 point were distributed randomly into the model group and other administration group, while the rats getting 2 point and 3 point were distributed randomly into above 6 groups according the above method and sham operation group was not involved in the above grouping. 0.5% CMC-NA (1 ml·100 g^−1) was administrated intragastrically to the blank control group and the model group, two dosage group of 120 mg·kg^−1, 60 mg·kg^−1 were administrated intragastrically to the LQC-T4 (1 ml·100 g^−1) group, and 74 mg·kg^−1 TMP+46 mg·kg^−1 vanillitc acid (1 ml·100 g^−1) were administrated intragastrically, once per day continuously for 10 days.
10% chloral hydrate 0.35 g/kg was injected into the abdominal cavity to anesthetize them after the rats were administrated for 10 days. The head was cut and the brain was taken. The cranial bones were stripped, the meninges were peeled off to separate the ischemia side of the brain, the blood streak was striped and then the brain was weighed. 4 times amount of 0.9 physiological saline was added and the brain was homogenized in 0° C. ice bath. […]
It was detected with 722 type visible spectrophotometer according to the kit operation. […]

[1] = 60 mg/kg intragastrically once a day
[2] = 120 mg/kg intragastrically once a day
[3] = 60 mg/kg intragastrically once per day for 10 days
[4] = 120 mg/kg intragastrically once per day for 10 days
[5] = 30 mg/kg once per day for 10 days
[6] = 37 mg/kg once per day for 10 days

With `COc1cc(C(=O)OCc2nc(C)c(C)nc2C)ccc1OCc1nc(C)c(C)nc1C` [LQC-T4, (3,5,6-trimethylpyrazine-2-yl)methyl 3-methoxy-4-((3,5,6-trimethylpyrazine-2-yl)methoxy) benzoate] the “neurological symptoms evaluation (3 d)” value (MCAO rats; [1]) was 1.40 ± 0.51, the “neurological symptoms evaluation (7 d)” value (MCAO rats; [1]) was 1.26 ± 0.35 and the “neurological symptoms evaluation (3 d)” value (MCAO rats; [2]) was 1.29 ± 0.47. For the same compound, the “neurological symptoms evaluation (7 d)” value (MCAO rats; [2]) was 1.60 ± 0.74, the VEGF (VEGF; [3]) was 25.67 ± 9.69 and the VEGF (VEGF; [4]) was 22.86 ± 8.42. For the same compound, the SOD (SOD; [3]) was 75.29 ± 30.08 and the SOD (SOD; [4]) was 85.03 ± 56.03.
In the case of `COCCOC(=O)C1=C(C)NC(C)=C(C(=O)OC(C)C)C1c1cccc([N+](=O)[O-])c1` (stereo not shown) [Nimodipine, reference compound], the “neurological symptoms evaluation (3 d)” value (MCAO rats; 30 mg/kg once a day) is reported as 1.35 ± 0.49, the “neurological symptoms evaluation (7 d)” value (MCAO rats; 30 mg/kg once a day) is reported as 1.11 ± 0.48 and the VEGF (VEGF; [5]) is reported as 19.66 ± 2.34. For the same compound, the SOD (SOD; [5]) was 79.85 ± 36.57.
For `Cc1nc(C)c(C)nc1C` [TMP, tetramethylpyrazine, reference compound], the “neurological symptoms evaluation (3 d)” value (MCAO rats; 37 mg/kg once a day) was 1.36 ± 0.50, the “neurological symptoms evaluation (7 d)” value (MCAO rats; 37 mg/kg once a day) was 1.67 ± 0.78 and the VEGF (VEGF; [6]) was 23.62 ± 6.68. The SOD (SOD; [6]) was 61.58 ± 16.23.
